Assays:
[1] = system: Honeybees (Apis mellifera scutellata); test: Classical conditioning of the proboscis extension response (PER): learning, 24 h memory retention, latency; flavonoids vs imidacloprid; type: in vivo; conditions: for memory retention, proportion difference relative to Control bees (Adjusted Wald test): conditioned PER after 24 h; for latency of response during learning acquisition relative to Control bees / learning scores relative to Control bees: honey bees; for learning scores relative to Control bees: 8 trials, score 0-7, quercetin 6.6 mM or rutin 1 mM once a day for three days, imidacloprid 1.16 nM 20 μL 1.5 h before training
Procedure: Honeybees (Apis mellifera scutellata) were captured from established hives at the Apiary of the Pontificia Universidad Javeriana (Bogota, Colombia). Foragers were collected while leaving to forage between 8:00 am and 10:00 am (Matsumoto et al., J Neurosci Methods. 211(1):159-67. 2012). Bees were maintained in individual plastic chambers under laboratory conditions (photoperiod followed seasonal pattern; relative humidity: 63%; temperature: 18° C.). Food was provided once a day in a volume of 20 μL and varied in composition according to experimental treatments.
Control (2M sugar water): fed once a day (20 μL) for three consecutive days;
Quercetin (6.6 mM quercetin (Sigma-Aldrich: Q4951)-sucrose-water with DMSO 1% (Sigma-Aldrich: D8418): fed once a day for three days;
Rutin (1 mM rutin (Sigma-Aldrich R5143)-sucrose-water with DMSO 1%: fed once a day for three days;
Imidacloprid (1.16 nM Imidacloprid (Bayer)-sucrose-water: fed as a single dose (20 μL) 1.5 h before training;
Quercetin-Imidacloprid: bees received the quercetin treatment (see above) and were fed Imidacloprid 1.5 h before training; and
Rutin-Imidacloprid: bees received the rutin treatment (see above) and were fed Imidacloprid 1.5 h before training.
Bees were trained using classical conditioning of the proboscis extension response (PER), a broadly used method to study learning and memory in bees. Briefly, bees received a soft current of clean air for 15 seconds to allow bees to accommodate. Then a soft current of 1-hexanol (Sigma-Aldrich: 471402) was injected for 10 seconds. Six seconds after injection of 1-hexanol, one of the antennae was stimulated with sucrose water (50% w/w), which leads to the reflexive extension of the proboscis, and the bee was allowed to drink for 4 seconds. Thus, the reward and the stimulus overlapped for four seconds. This sequence, recognized as a training trial, was repeated eight times. Time was determined using a metronome (2 Hz). Memory retention was tested 24 hours after the eight training trials. […] 12 bees were trained each session. Training was conducted by an experimenter blind to treatment.
Learning was assessed from the total number of conditioned responses across the eight trials. Thus, each bee received a learning score between 0-7 (by definition, bees cannot show a learned response at the first trial). After 24 h, memory retention was assessed as the response to the presentation of 1-hexanol without a sucrose reward. Latency of response was quantified as the time between the onset of 1-hexanol stimulation and the onset of a response that led to a full extension of proboscis. Only bees being responsive to sucrose water across all training trials and the memory retention test were considered for analyses. Learning scores were compared across treatments using a Mann-Whitney test as data were not normally distributed (Shapiro-Wilk W test for the hypothesis that the data is from a Normal distribution: P<0.05 for all treatments). Comparisons of the learning score of bees across all treatments relative to Control bees were conducted using the Steel method adjusted as one or two-tailed tests. Additional post hoc comparisons were performed between Imid and Quer+Imid bees and between Imid and Rut+Imid bees. Memory retention was compared across groups using an overall Chi-Square test and independent tests for planned comparisons were performed using adjusted Wald tests for proportions. In all cases error due to multiple comparisons was controlled using the False Discovery Rate one stage method and adjusted p-values (q-values) are presented (Benjamini & Hochberg, Journal of the Royal Statistical Society. Series B (Methodological), 57(1):289-300. 1995; Pike, N., Methods in Ecology and Evolution, 2(3):278-282. 2011). All analyses were conducted using JMP v.14.0 (SAS Institute Inc). […]

[2] = system: bumblebee Bombus impatiens; test: Olfactory conditioning of PER in bumblebees: ad libitum rutin vs acute imidacloprid or fipronil; type: in vivo; conditions: for learning score relative to Control bees: score 0-10, ad libitum 1 μM rutin three days, 5 nM imidacloprid or 6 nM fipronil 20 μL 2 hours before training
Procedure: One colony of the bumblebee Bombus impatiens (Koppert Inc) was kept in laboratory conditions. Bees received pollen inside the nests and foraged to a 1M sugar-water feeder outside of the nest. Bees were collected while on the feeder and iced anesthetized to then be randomly assigned to one of two plastic containers where ad libitum self-administration of one of two solutions was allowed to 10 bees: i) 1 M sucrose water or ii) 1 μM Rutin (Sigma-Aldrich R5143) diluted in 1M sucrose water. On the night of the third day, the feeder was removed to starve the bees. On the fourth day, the bees were iced anesthetized and yolked restrained in plastic pipettes. Bees were maintained in the pipettes for the rest of the experiment (two days). One hour after harnessing, the bees were randomly assigned to one of three treatments: i) 20 μL of 1M sucrose water, ii) 20 μL of 1M sucrose water+5 nM imidacloprid, iii) 20 μL of 1M sucrose water+6 nM fipronil. Thus, overall bees belonged to one of six treatments:
Control: ad libitum sucrose water for three days and 20 μL of sucrose water before training
Rutin: ad libitum 1 μM Rutin for three days and 20 μL of sucrose water before training
Imid: ad libitum sucrose water for three days and 20 μL of 5 nM Imidacloprid in 1M sugar water 2 hours before training
Rutin+Imid: ad libitum 1 μM Rutin for three days and 20 μL of 5 nM Imidacloprid in 1M sugar water 2 hours before training
Fipronil: ad libitum sucrose water for three days and 20 μL of 5 nM fipronil in 1M sucrose water 2 hours before training
Rutin+Fipronil: ad libitum […] Rutin for three days and 20 μL of 6 nM fipronil in 1M sugar water 2 hours before training
All bees were blind-trained using olfactory conditioning of the proboscis extension response (PER). Briefly, bees were exposed to a presentation of 1-nonanol (Sigma-Aldrich) for 10 s. After 7 s of the onset of the odor presentation, the antenna was stimulated with 1.5 M sugar-water to elicit the PER. Following the PER, the bee was allowed to drink sugar-water for 3 s. Each paired presentation was considered a training trial and each individual received eleven training trials with an average intertrial interval of 10 minutes. After training, all bees were fed 20 μL of 1M sugar water and maintained in plastic boxes for 24 h until the retention test. […] Twenty-four hours after the last training trial the bees were presented with the conditioned odor for 10 s.
Learning for each individual was quantified as the number of conditioned PER responses across the trials. Thus, for each bee a learning score between zero and ten (0-10) was recorded.
Multiple comparisons were then run comparing learning score relative to Control bees using a non-parametric one or two-tailed Steel Method depending upon predictions. These comparisons informed us about the predicted impairment produced by the insecticides, the predicted innocuous effect of the flavonoid and the potential level of protection. Error due to multiple comparisons was controlled using the False Discovery Rate method (FDR-two stage sharpened method). In all cases corrected p-values (q-values) are presented.
Memory retention was quantified as a nominal variable (yes/no). Data were compared across treatments using a Chi-square test, followed by multiple comparisons of all treatments vs. Control. Error due to multiple comparisons was controlled using the FDR as indicated above. In all cases corrected p-values (q values) are presented.
Latency was quantified as a continuous variable between 0.5 s and 10 s. Data were compared across treatments using an ANOVA following a Log transformation to normalize the distribution (Shapiro-Wilk W Test after log transformation: p>0.05 for all treatments for the null hypothesis that data is from a normal distribution), followed by multiple comparisons between all treatments and the Control group. Error due to multiple comparisons was controlled using the FDR method as indicated above. […]

Structure (SMILES)	odds of remembering for Control bees relative to Imid bees ([1]; 24 h retention) [times]	probability of exhibiting a conditioned PER after 24 h relative to Control bees ([1]; 24 h retention)	memory retention, proportion difference relative to Control bees (Adjusted Wald test) [1]	latency of response during learning acquisition relative to Control bees [1]	learning scores relative to Control bees [1]	bees exhibiting a conditioned PER after 24 h ([1]; retention test 24 h after training) [%]	odds of remembering for Control bees relative to insecticide bees ([2]; 24 h retention) [times]	proportion difference Control minus insecticide group for a PER response (Adjusted Wald test) ([2]; 24 h retention)	decision-making ratio (latency of response / learning score) relative to Control bees ([2]; bumblebees)	bees exhibiting a conditioned response after 24 h ([2]; bumblebees, 24 h retention test) [%]	learning score relative to Control bees ([2]; bumblebees)	learning scores relative to bees in the Imid group ([1]; honey bees prophylactically fed flavonoid for three days, then imidacloprid 1.5 h before training)
O=[N+]([O-])NC1=NCCN1Cc1ccc(Cl)nc1 [Imidacloprid]	9.1	significantly lower	0.49	not significantly different from Control	significantly lower	20	12	0.51	significant increase	13	significantly lower	
C[C@@H]1O[C@@H](OC[C@H]2O[C@@H](Oc3c(-c4ccc(O)c(O)c4)oc4cc(O)cc(O)c4c3=O)[C@H](O)[C@@H](O)[C@@H]2O)[C@H](O)[C@H](O)[C@H]1O [Rutin]			−0.14	not significantly different from Control	significantly higher learning scores						not significantly different	significantly higher learning scores

Reference: patent US20220339178A1, “COMPOSITIONS AND METHODS FOR COGNITIVE PROTECTION OF POLLINATORS AGAINST PESTICIDES” (priority 2019, published 2022)
